According to ChEMBL document CHEMBL3244037, “6-Aryl-4H-s-triazolo[4,3-a][1,4]benzodiazepines. Influence of 1-substitution on pharmacological activity” (J Med Chem, 1979):

Legend:
Mus musculus [1] = assay: Anticonvulsant activity in ip dosed albino CF1 mouse assessed as protection against pentylenetetrazole-induced clonic convulsions; format: functional
Mus musculus [2] = assay: Hypothermic activity in ip dosed albino CF1 mouse assessed as effect on body temperature measured after 45 mins; format: functional; conditions: 0.75 h
Mus musculus [3] = assay: Inhibition of apomorphine-induced cage climbing in ip dosed albino CF1 mouse compound administered prior to challenge measured for 5 mins after 5 mins of challenge; format: functional
Mus musculus [4] = assay: Anticonvulsant activity in ip dosed albino CF1 mouse assessed as inhibition of bicucullin-induced tonic extensor convulsions; format: functional
Mus musculus [5] = assay: […] activity in ip dosed albino CF1 mouse assessed as potentiation of gamma-butyrolactone-induced sleep; format: functional
Mus musculus [6] = assay: Reduction of hypoxic stress in ip dosed albino CF1 mouse assessed as prolongation of hypoxic survival time; format: functional
Mus musculus [7] = assay: Inhibition of amphetamine aggregation toxicity in ip dosed albino CF1 mouse compound administered 1 hr prior to challenge measured after 2 hrs; format: functional
Mus musculus [8] = assay: Potentiation of yohimbine toxicity in ip dosed aggregated albino CF1 mouse; format: organism-based
Mus musculus [9] = assay: Inhibition of oxotremorine-induced hypothermia in ip dosed albino CF1 mouse; format: functional
Mus musculus [10] = assay: Potentiation of apomorphine-induced gnawing in ip dosed albino CF1 mouse; format: organism-based

SMILES | ED50 (Mus musculus [1]) [mg/kg] | ED50 (Mus musculus [2]) [mg/kg] | ED50 (Mus musculus [3]) [mg/kg] | ED50 (Mus musculus [4]) [mg/kg] | ED50 (Mus musculus [5]) [mg/kg] | ED50 (Mus musculus [6]) [mg/kg] | ED50 (Mus musculus [7]) [mg/kg] | ED50 (Mus musculus [8]) [mg/kg] | ED50 (Mus musculus [9]) [mg/kg] | ED50 (Mus musculus [10]) [mg/kg]
Clc1ccc2c(c1)C(c1ccccc1)=NCc1nnc(C(Cl)Cl)n1-2 | 8 | > 50 | > 50 | 10 | 3 | > 50 | > 50 | > 50 | > 50 | > 50
CN(C)CCN(C)c1nnc2n1-c1ccc(Cl)cc1C(c1ccccc1)=NC2 | 30 | 40 | > 50 | 42 | 12.5 | > 50 | > 50 | > 50 | > 50 | > 50
CN(C)C(=O)Cc1nnc2n1-c1ccc(Cl)cc1C(c1ccccc1)=NC2 | 5.6 | > 50 | > 50 | 40 | 10 | > 50 | > 50 | > 50 | > 50 | > 50
Sc1nnc2n1-c1ccc(Cl)cc1C(c1ccccc1)=NC2 | 2.3 | 9 | > 50 | 3 | 0.8 | 9 | > 50 | > 50 | > 50 | > 50
CCN1CCN(c2nnc3n2-c2ccccc2C(c2ccccc2Cl)=NC3)CC1 | 2 | 2 | > 50 | 7 | > 50 | 4 | > 50 | 30 | 40 | > 50
OCc1nnc2n1-c1ccc(Cl)cc1C(c1ccccc1)=NC2 | 0.1 | > 50 | > 50 | 0.2 | 0.1 | 0.9 | > 50 | > 50 | 20 | > 50
Clc1ccccc1C1=NCc2nnc(Br)n2-c2ccccc21 | 10.5 | > 50 | > 50 | 25 | 6.2 | 8.8 | > 50 | > 50 | > 50 | > 50
CCN(CC)CCOc1nnc2n1-c1ccc(Cl)cc1C(c1ccccc1)=NC2 | 8.8 | > 50 | > 50 | 12.5 | 2.2 | 40 | > 50 | 42 | > 50 | > 50
CN1C(=O)CN=C(c2ccccc2)c2cc(Cl)ccc21 [DIAZEPAM] | 0.1 | 14.9 | > 50 | 2.6 | 0.035 | 0.2 | > 50 | > 50 | > 50 | > 50
Clc1ccc2c(c1)C(c1ccccc1Cl)=NCc1nnc(N3CCOCC3)n1-2 | 0.06 | 6 | > 50 | 0.05 | 0.04 | 0.06 | > 50 | > 50 | > 50 | > 50
OCCN1CCN(c2nnc3n2-c2ccc(Cl)cc2C(c2ccccc2)=NC3)CC1 | 42 | > 50 | > 50 | 8.8 | 1.6 | > 50 | > 50 | > 50 | > 50 | 25
CN(C)c1nnc2n1-c1ccc(Cl)cc1C(c1ccccc1)=NC2 | 0.9 | > 50 | > 50 | 1.1 | 0.3 | 9 | > 50 | > 50 | 21 | > 50
OCCc1nnc2n1-c1ccc(Cl)cc1C(c1ccccc1)=NC2 | 4 | 30 | > 50 | > 50 | > 50 | 4 | > 50 | > 50 | > 50 | > 50
FC(F)(F)c1nnc2n1-c1ccc(Cl)cc1C(c1ccccc1)=NC2 | 20 | > 50 | > 50 | > 50 | > 50 | > 50 | > 50 | > 50 | > 50 | > 50
Cc1nnc2n1-c1ccc(N)cc1C(c1ccccc1Cl)=NC2 | 2 | 30 | > 50 | 0.9 | 0.7 | 4 | > 50 | > 50 | > 50 | > 50
Brc1ccc2c(c1)C(c1ccccn1)=NCc1nncn1-2 | 0.3 | > 50 | > 50 | 0.4 | 0.04 | 0.2 | > 50 | 42 | > 50 | > 50
Clc1ccccc1C1=NCc2nncn2-c2ccccc21 | > 50 | > 50 | > 50 | 42 | 12.5 | > 50 | > 50 | > 50 | > 50 | > 50
Clc1ccc2c(c1)C(c1ccccc1)=NCc1nnc(N3CCNCC3)n1-2 | > 50 | > 50 | > 50 | > 50 | > 50 | > 50 | > 50 | > 50 | 34 | > 50
CN(C)CCSc1nnc2n1-c1ccc(Cl)cc1C(c1ccccc1)=NC2 | 3.1 | > 50 | > 50 | 7.4 | 1.6 | > 50 | > 50 | > 50 | > 50 | > 50
Clc1ccc2c(c1)C(c1ccccc1)=NCc1nnc(N3CCCC3)n1-2 | 4.5 | 40 | > 50 | 4 | 3 | > 50 | > 50 | > 50 | 30 | > 50
CN1CCN(c2nnc3n2-c2ccc(Br)cc2C(c2ccccn2)=NC3)CC1 | 12.5 | > 50 | > 50 | 8.8 | 3.1 | 21 | > 50 | 35.4 | > 50 | 3.7
CN(C)CCOc1nnc2n1-c1ccc(Cl)cc1C(c1ccccc1)=NC2 | 2.2 | > 50 | > 50 | 1.1 | 0.2 | 0.8 | > 50 | > 50 | 25 | > 50
Clc1ccc2c(c1)C(c1ccccc1)=NCc1nnc(Cl)n1-2 | 3.1 | > 50 | > 50 | 4 | 3 | > 50 | > 50 | > 50 | > 50 | > 50
